Test results reported in ChEMBL document CHEMBL3046449, “Selective Herbicidal Activities of Ethyl 5-(4, 6-Dimethoxypyrimidin-2-ylcarbamoylsulfamoyl)-1-methylpyrazole-4-carboxylate and Its Related Compounds” (J Pestic Sci, 1990).

How the values were obtained:
Sagittaria pygmaea [1] = assay: Herbicidal activity against Sagittaria pygmaea assessed as weed control in transplanted rice field at 30 g/ha treated after 10 days transplanting; assay type: functional
unidentified [2] = assay: Herbicidal activity against broadleaf weed assessed as weed control in transplanted rice field at 30 g/ha treated after 10 days transplanting; assay type: functional
Pontederia vaginalis [3] = assay: Herbicidal activity against Monochoria vaginalis assessed as weed control in transplanted rice field at 30 g/ha treated after 10 days transplanting; assay type: functional
Sagittaria pygmaea [4] = assay: Herbicidal activity against Sagittaria pygmaea assessed as weed control in transplanted rice field at 30 g/ha treated after 7 days transplanting; assay type: functional
Pontederia vaginalis [5] = assay: Herbicidal activity against Monochoria vaginalis assessed as growth inhibition in paddy condition under greenhouse at 5 g/ha measured after 18 days by preemergence activity assay; assay type: functional; conditions: pre-emergence, 432 h, read-out: GI
Echinochloa crus-galli [6] = assay: Herbicidal activity against Echinochloa crus-galli (barnyard grass) assessed as growth inhibition in paddy condition under greenhouse at 5 g/ha measured after 18 days by preemergence activity assay; assay type: functional; conditions: pre-emergence, 432 h, read-out: GI
Oryza sativa [7] = assay: Effect on Oryza sativa (rice) plant growth in transplanted Oryza sativa field assessed as plant height at 30 g/ha treated after 10 days transplanting; assay type: organism-based; conditions: in vivo, other, 240 h
Oryza sativa [8] = assay: Effect on Oryza sativa (rice) plant growth in transplanted Oryza sativa field assessed as plant height at 30 g/ha treated after 7 days transplanting; assay type: organism-based; conditions: in vivo, other, 168 h
Oryza sativa [9] = assay: Effect on Oryza sativa (rice) plant growth in transplanted Oryza sativa field assessed as plant height at 30 g/ha treated after 3 days transplanting; assay type: organism-based; conditions: in vivo, other, 72 h
Sagittaria pygmaea [10] = assay: Herbicidal activity against Sagittaria pygmaea assessed as weed control in transplanted rice field at 30 g/ha treated after 15 days transplanting; assay type: functional
Oryza sativa [11] = assay: Effect on Oryza sativa (rice) plant growth in transplanted Oryza sativa field assessed as number of tillers at 30 g/ha treated after 10 days transplanting; assay type: organism-based; conditions: in vivo, other, 240 h
Oryza sativa [12] = assay: Effect on Oryza sativa (rice) plant growth in transplanted Oryza sativa field assessed as number of tillers at 20 g/ha treated after 3 days transplanting; assay type: organism-based; conditions: in vivo, other, 72 h
Oryza sativa [13] = assay: Effect on Oryza sativa (rice) plant growth in transplanted Oryza sativa field assessed as plant height at 30 g/ha treated after 15 days transplanting; assay type: organism-based; conditions: in vivo, 360 h
[14] = test system: Schoenoplectiella juncoides; assay: Herbicidal activity against two-leaf stage Schoenoplectiella juncoides assessed as growth inhibition treated 7 to 15 days after planting measured by postemergence activity assay; assay type: functional
Cyperus serotinus [15] = assay: Herbicidal activity against Cyperus serotinus assessed as growth inhibition measured after 2 days by preemergence activity assay; assay type: functional
Pontederia vaginalis [16] = assay: Herbicidal activity against Monochoria vaginalis assessed as growth inhibition measured after 2 days by preemergence activity assay; assay type: functional
[17] = test system: Schoenoplectiella juncoides; assay: Herbicidal activity against Schoenoplectiella juncoides assessed as growth inhibition measured after 2 days by preemergence activity assay; assay type: functional
Cyperus serotinus [18] = assay: Herbicidal activity against Cyperus serotinus assessed as weed control in transplanted rice field at 30 g/ha treated after 3 days transplanting; assay type: functional
Pontederia vaginalis [19] = assay: Herbicidal activity against Monochoria vaginalis assessed as weed control in transplanted rice field at 30 g/ha treated after 3 days transplanting; assay type: functional
[20] = test system: Schoenoplectiella juncoides; assay: Herbicidal activity against Schoenoplectiella juncoides assessed as weed control in transplanted rice field at 30 g/ha treated after 3 days transplanting; assay type: functional
Echinochloa crus-galli [21] = assay: Herbicidal activity against Echinochloa crus-galli (barnyard grass) assessed as weed control in transplanted rice field at 30 g/ha treated after 3 days transplanting; assay type: functional
unidentified [22] = assay: Herbicidal activity against broadleaf weed assessed as weed control in transplanted rice field at 20 g/ha treated after 7 days transplanting; assay type: functional

`CCOC(=O)c1cnn(C)c1S(=O)(=O)NC(=O)Nc1nc(OC)cc(OC)n1` [PYRAZOSULFURON ETHYL] showed an Activity (Sagittaria pygmaea [1]) of 95%, an Activity (unidentified [2]) of 100% and an Activity (Pontederia vaginalis [3]) of 93%. For the same compound, the Activity (Sagittaria pygmaea [4]) was 98%, the inhibition of growth at 5 g/ha (Pontederia vaginalis [5]) was greater than 90% and the inhibition of growth at 5 g/ha (Echinochloa crus-galli [6]) was 40%. For the same compound, the Activity (Oryza sativa [7]) was 102%, the Activity (Oryza sativa [8]) was 104% and the Activity (Oryza sativa [9]) was 104%. It also gave an Activity (Sagittaria pygmaea [10]) of 95%, an Activity (Oryza sativa [11]) of 101% and an Activity (Oryza sativa [12]) of 100%. It also gave an Activity (Oryza sativa [13]) of 101%, an I75 [14] of 13 gAi/ha and an I75 (Cyperus serotinus [15]) of 0.9 gAi/ha. For the same compound, the I75 (Pontederia vaginalis [16]) was 2.7 gAi/ha, the I75 [17] was 8.3 gAi/ha and the Activity (Cyperus serotinus [18]) was 100%. For the same compound, the Activity (Pontederia vaginalis [19]) was 100%, the Activity [20] was 100% and the Activity (Echinochloa crus-galli [21]) was 97%. The Activity (unidentified [22]) was 100%.
